Assay results reported in patent publication US7504380B2, “Antimicrobial peptide isolated from halocynthia aurantium” (Industry-Academic Cooperation Foundation, Hoseo University, priority 2002, dated 2009).

Columns and labels:
human erythrocytes = assay type: cell-based
Description: In order to investigate […] of halocidin, the present inventors performed hemolytic assay. Particularly, mixed 20 μl of peptide diluted to 100, 50, 25, 12.5, 6.25, 3.125 μg/ml and 180 μl of 2.5% (V/V) human erythrocytes in PBS. Used melittin (Sigma) and clavanin AK, a congener in which clavanin A residue was substituted, for comparative group, and 0.01% acetic acid for control group. After reacting the mixture at 37° C. for 30 minutes, added 600 μl of PBS into each tube. Centrifuged the solution at 10,000 g for 3 minutes and separated supernatants. Measured OD at 540 nm and calculated the hemolytic activity (%) according to the below <Mathematical Formula 1>.

[1] = system: multi drug resistance Pseudomonas aeruginosa (MDRPA); assay: ultra-sensitive radial diffusion assay, MDRPA; assay type: cell-based; settings: according to the concentration of the peptides; FIG. 9B, 9D
Description: (§1) In order to measure the antimicrobial activity of acid extracts of Halocynthia aurantium obtained in the above Example <1-1>, the present inventors performed ultrasensitive radial diffusion assay. Particularly, analyzed 150 fractions eluted in the above Example <1-1> 5 times each. Took 100 μl from 2 ml of each fraction and concentrated thereof with a vacuum centrifugation (Centra Evaporator, Bioneer, Korea), which was suspended in 5 μl of 0.01% acetic acid solution. Meanwhile, prepared agarose plate including wells 3 mm in diameter by adding methicillin resistance Staphylococcus aureus (referred as “MRSA” hereinafter, Seoul Women's University, Korea CCARM3001) of mid-logarithmic phase to gel comprising sterilized citrate phosphate buffer (9 mM sodium phosphate, 1 mM sodium citrate, pH 7.4), 1% (w/v) type 1 agarose (low electroendosmosis agarose) (A 6013, Sigma) and 3% tryptic soy broth (TSB, Difco, Detroit, Mich., USA). Loaded the above fractions onto the wells of agarose plate containing the above bacteria. Reacted thereof for 3 hours to make the peptides spread into the agarose gel. Added 10 ml of overnutrition medium comprising 6% TSB and 1% agarose gel thereto. Cultured the above plate for overnight until the colonies of the above bacteria were formed. Confirmed the antimicrobial activity of the loaded peptide by measuring the diameter of clearing zone formed around the loaded peptide fraction.
(§2) The present inventors performed ultra-sensitive radical diffusion assay with synthetic peptides prepared in the above Example <2-2>. Particularly, measured antimicrobial activity of each 15Hc, di-15Hc, 18Hc, di-18Hc, halocidin, magainin 1 (Sigma) (control group) and buforin 2 (Sigma) (comparative group) against MRSA and multi drug resistance Pseudomonas aeruginosa (referred as “MDRPA” hereinafter)(Seoul Women's University CCARM2002) according to the concentration of the peptides.

[2] = system: Gram negative bacteria such as Pseudomonas aeruginosa, Salmonella cholerasuis, Salmonella parotyphi A, E. coli K112 and E. coli DH5α; assay: radial diffusion assay, Gram-negative bacteria; assay type: cell-based; settings: FIG. 12-14
[3] = system: Gram-positive bacteria such as Staphylococcus aureus, Micrococcus luteus, Enterococcus faecalis, Bacillus subtilus and MRSA; assay: radial diffusion assay, Gram-positive bacteria; assay type: cell-based; settings: FIG. 15-17
Description: In order to measure the antimicrobial activity of acid extracts of Halocynthia aurantium obtained in the above Example <1-1>, the present inventors performed ultrasensitive radial diffusion assay. Particularly, analyzed 150 fractions eluted in the above Example <1-1> 5 times each. Took 100 μl from 2 ml of each fraction and concentrated thereof with a vacuum centrifugation (Centra Evaporator, Bioneer, Korea), which was suspended in 5 μl of 0.01% acetic acid solution. Meanwhile, prepared agarose plate including wells 3 mm in diameter by adding methicillin resistance Staphylococcus aureus (referred as “MRSA” hereinafter, Seoul Women's University, Korea CCARM3001) of mid-logarithmic phase to gel comprising sterilized citrate phosphate buffer (9 mM sodium phosphate, 1 mM sodium citrate, pH 7.4), 1% (w/v) type 1 agarose (low electroendosmosis agarose) (A 6013, Sigma) and 3% tryptic soy broth (TSB, Difco, Detroit, Mich., USA). Loaded the above fractions onto the wells of agarose plate containing the above bacteria. Reacted thereof for 3 hours to make the peptides spread into the agarose gel. Added 10 ml of overnutrition medium comprising 6% TSB and 1% agarose gel thereto. Cultured the above plate for overnight until the colonies of the above bacteria were formed. […]

[4] = system: methicillin resistance Staphylococcus aureus (MRSA); assay: ultrasensitive radial diffusion assay, MRSA; assay type: cell-based; set-up: antimicrobial activity according to pH, MRSA / antimicrobial activity according to NaCl, MRSA: unit not given here; settings: for antimicrobial activity to MRSA strain (diameter of clear zone): according to the concentration of the peptides, FIG. 9A, 9C
Description: as §1, §2
(§3) Particularly, adjusted the pH of media to 7.4, 6.5 and 5.5 respectively by adding HCl, which was checked with a pH meter, and performed radical diffusion assay with the same method as the above Example 1 to investigate the antimicrobial activity to MRSA and Enterococcus faecalis.
(§4) Particularly, changed the basic condition of media by adding 100 mM NaCl, 150 mM NaCl and 200 mM NaCl respectively, and investigated the antimicrobial activity to MRSA and Enterococcus faecalis by radical diffusion assay.

Enterococcus faecalis = assay: radial diffusion assay, Enterococcus faecalis; assay type: cell-based; set-up: unit not given here
Description: as §1, §3, §4

MRSA strain = assay: colony counting assay, MRSA; assay type: cell-based, Staphylococcus aureus; settings: peptide 5 μg/ml, 5 and 15 minutes; FIG. 10
Description: (§5) In order to investigate antimicrobial activity of halocidin, the present inventors performed colony counting assay. Particularly, adjusted the final concentration of the peptide to 5 μg/ml by mixing the peptide and MRSA strain or MDRPA strain of mid-log phase in sterilized 10 mM sodium phosphate buffer (pH 7.4) containing 0.3 mg/id of TSB powder. Adjusted the final volume of the above mixture to 100 μl, and then let it be pre-reacted in a 37° C. shaking water bath for 5 and 15 minutes each. Collected 20 μl of pre-reacted solution and loaded thereof onto 1.5% bacto-agar plate (Difco). Induced reaction for overnight and counted the number of formed colonies on the above plate, from which measured the antimicrobial activity. Used magainin 1 and buforin 2 for comparative group, and 0.01% acetic acid for control group.

MDRPA strain = assay: colony counting assay, MDRPA; assay type: cell-based, Pseudomonas aeruginosa; settings: peptide 5 μg/ml, 5 and 15 minutes; FIG. 10
Description: as §5

| Substance | hemolytic activity (human erythrocytes) | antimicrobial activity to MDRPA strain (diameter of clear zone) [1] | antimicrobial activity to Gram-negative bacteria [2] | antimicrobial activity to Gram-positive bacteria [3] | antimicrobial activity according to NaCl, MRSA ([4]; NaCl 100 mM) | antimicrobial activity according to NaCl, MRSA ([4]; NaCl 150 mM) | antimicrobial activity according to NaCl, MRSA ([4]; NaCl 200 mM) | antimicrobial activity to MRSA strain (diameter of clear zone) [4] | antimicrobial activity according to pH, MRSA ([4]; pH = 5.5) | antimicrobial activity according to pH, MRSA ([4]; pH = 6.5) | antimicrobial activity according to pH, MRSA ([4]; pH = 7.4) | antimicrobial activity according to NaCl, Enterococcus faecalis (Enterococcus faecalis; NaCl 100 mM) | antimicrobial activity according to NaCl, Enterococcus faecalis (Enterococcus faecalis; NaCl 150 mM) | antimicrobial activity according to NaCl, Enterococcus faecalis (Enterococcus faecalis; NaCl 200 mM) | antimicrobial activity according to pH, Enterococcus faecalis (Enterococcus faecalis; pH = 5.5) | antimicrobial activity according to pH, Enterococcus faecalis (Enterococcus faecalis; pH = 6.5) | antimicrobial activity according to pH, Enterococcus faecalis (Enterococcus faecalis; pH = 7.4) | antimicrobial activity by colony counting, MRSA (MRSA strain) | antimicrobial activity by colony counting, MDRPA (MDRPA strain) |
| --- | --- | --- | --- | --- | --- | --- | --- | --- | --- | --- | --- | --- | --- | --- | --- | --- | --- | --- | --- |
| 15Hc: 15-amino-acid monomer of halocidin; 18Hc lacking three N-terminal amino acids, SEQ. ID. No 2 (WLNALLHHGLNCAKG; PEPTIDE (1)..(1) 15mer of halocydin; listed as Halocynthia aurantium) [Peptide 15Hc, 15-amino-acid monomer of halocidin; ID; No 2] | 0% | higher antimicrobial activity than comparative group | hardly showed or had minimum antimicrobial activity | low antimicrobial activity |  |  |  |  |  |  |  |  |  |  |  |  |  |  |  |
| Buforin 2 |  | proved to have antimicrobial activity |  |  | >64 | >64 | >64 | proved to have antimicrobial activity | >64 | >64 | >64 | >64 | >64 | >64 | >64 | >64 | >64 |  |  |
| KWLNALLHHGLNCAKGVLA (PEPTIDE (1)..(19) 19mer of halocydin; listed as Halocynthia aurantium) [K(18 + 1)Hc, ID; No 9] |  |  |  |  | 16-32 | 16-32 | 32-64 |  | 32-64 | 16-32 | 16-32 | 16-32 | 16-32 | 16-32 | 16-32 | 16-32 | 8-16 |  |  |
| Magainin 1 (GIGKFLHSAGKFGKAFVGEIMKS; Magainin-1; UniProt P11006 37-59, looked up) [magainin 1 (Sigma), control/comparative antimicrobial peptide] |  | proved to have antimicrobial activity |  |  | >64 | >64 | >64 |  | >64 | >64 | >64 | >64 | >64 | >64 | >64 | >64 | >64 |  |  |
| Secrofin A |  |  |  |  | >64 | >64 | >64 |  | >64 | >64 | >64 | >64 | >64 | >64 | >64 | >64 | >64 |  |  |
| WLNALLHHGLNCAKGVLA (PEPTIDE (1)..(1) 18mer of halocydin; listed as Halocynthia aurantium) [Peptide 18Hc, ID; No 1] | 9% | higher antimicrobial activity than comparative group | hardly showed or had minimum antimicrobial activity | low antimicrobial activity |  |  |  | higher antimicrobial activity than buforin 2 |  |  |  |  |  |  |  |  |  | high antimicrobial activity | high antimicrobial activity |
